In patent publication US9622997B2, “Methods for treating insomnia” (Lynn Health Science Institute, Inc., priority 2012, dated 2017):

Experiments:
[1] = system: healthy subjects subjected to a transient insomnia protocol; test: Next day residual effects (DSST, SCT, VAS) and adverse events after PSG night; type: in vivo, human
Method: Next day residual effects were assessed by a comparing pre- and post-PSG Digit Symbol Substitution Test (DSST; 90-s duration) and Symbol Copying Test (SCT; 90-s duration). Hangover effect of baclofen 20 mg was assessed by comparing a Visual Analog Scale (VAS) for sleepiness administered the morning after each PSG. DSST and SCT were administered prior to study medication provided 90 minutes before Lights Out. DSST, SCT, and VAS were conducted 30 minutes after Lights On in the order given. Subjects were contacted between 24-48 hours after each PSG to assess any side-effects or adverse events.
The primary outcome variables were WASO, TST, and SE. Secondary outcome variables were SOL, sTST, sSOL, and sNAS. Exploratory variables to assess residual effects were cognitive and visual analog test scores (DSST, SCT, and VAS). Objective PSG measures such as the percent of time in each sleep stage, subjective self-reports, and residual effects were analyzed using SPSS 11.0 (SPSS Inc., Chicago, Ill., USA). Paired samples t-tests were used to compare means between treatment groups for normally distributed dependent measures. Wilcoxon signed-rank tests were used to compare the medians between treatment groups for non-normally distributed dependent measures. Sample size determination was made based on previous findings in our laboratory from a study of the effect of baclofen in patients with nighttime reflux.

[2] = system: individuals with complaints of nighttime heartburn or regurgitation; test: Cross-over trial with esophageal pH monitoring combined with overnight PSG after reflux-provoking meal; type: in vivo, human
Source text: Individuals aged 18-65 (inclusive) with complaints of nighttime heartburn or regurgitation at least twice per week and a Carlsson GERD score of at least 5 were invited to participate. […] Participants were also excluded if they took sedating medications on a regular basis (PRN use was allowed if they agreed to abstain from use on the nights in the sleep laboratory). Participants were recruited from a database of patients with heartburn complaints. These participants had previously expressed interest in participating in medical research studies at our facility. Advertising was not utilized in recruitment.
Esophageal pH monitoring was performed using an antimony pH catheter (Sandhill Scientific, Highlands Ranch, Colo., USA) placed in the distal esophagus. The catheter was inserted into the esophagus via the nares and positioned so that the pH electrode was 5 cm above the manometrically determined LES. Prior to insertion the pH electrode was calibrated against solutions of pH 4 and 7. The catheter was connected to an acid reflux monitor, which allowed continuous recordings of esophageal pH for a 24-hour period as well as simultaneous pH monitoring during PSG (ZepHr, Sandhill Scientific).
Data were analyzed using BioVIEW Analysis software (Sandhill Scientific). This software provides a report of upright, supine, and total acid contact time (ACT), which were used as outcome measures in the study.
Overnight polysomnography included monitoring of electroencephalography, electroocculography, submental electromyography, airflow (thermistor), electrocardiogram and SaO2. Distal and proximal pH was also recorded via the polysomnography system. […] “Lights Out” occurred at the patient's usual bedtime. Time in bed was standardized to 8 hours. For the purposes of this study, significant sleep apnea was defined as an apnea hypopnea index (AHI) of at least 10 events per hour of sleep. Individuals with an AHI of 10 or greater on the first sleep study were excluded from the study. Likewise, individuals with a periodic limb movement arousal index (PLMAI) of 10 or greater were excluded.
A reflux event was defined as a period of at least 30 consecutive seconds with pH readings below 4. A reflux event ended when the pH rose to 4 or greater for a period of at least 30 seconds. Reflux events were only counted if they occurred after PSG documented sleep onset had occurred. These analyses were done by hand in order to determine which events occurred during sleep and which occurred during wake. […]
The second and third visits were scheduled one to two weeks after the initial visit, and were separated by a washout period of approximately one week. […] The order of medication was determined by a computer-generated list of random sequences. […]

[3] = baclofen vs. placebo; cited from earlier work
[4] = baclofen 20 mg vs placebo, next day residual effects, 30 minutes after Lights On

## NCC(CC(=O)O)c1ccc(Cl)cc1 (stereo not drawn) [Baclofen, 4-amino-3-(4-chlorophenyl)-butanoic acid]
[1]; baclofen 20 mg vs placebo, morning after each PSG
  residual sleepiness testing, Visual Analog Scale (VAS): no significant differences between treatment conditions
[1]; [4]
  cognitive testing, Digit Symbol Substitution Test (DSST): no significant differences between treatment conditions
  cognitive testing, Symbol Copying Test (SCT): no significant differences between treatment conditions
[1]; baclofen 20 mg, contacted 24-48 hours after each PSG
  serious adverse events: No serious adverse events were reported
[2]; baclofen 40 mg
  adverse events: No adverse events were documented
[2]; baclofen 40 mg 90 minutes before bed, n=21, p<0.05
  reduction in number of distal reflux events occurring after PSG-determined sleep onset compared to placebo: 56%
[2]; baclofen 40 mg, FIG. 1C
  reflux events associated with wakefulness and with sleep, compared to placebo: reduced reflux events
[2]; baclofen 40 mg, not statistically significant
  decrease in recumbent ACT (acid contact time) versus placebo: approximately 50%
[3]
  decrease in reflux events in other studies: ~40%
